The target of one assay is human AT2R fused to Cb23 (Homo sapiens, UniProt P50052). Description: Radioligand binding assay, displacement of 125I-[Sar1, Ile8]-Angiotensin II, hAT2R Cb23. Particulars: displacement of 125I-[Sar1, Ile8]-Angiotensin II, human AT2R fused to Cb23, HEK-293 cell membrane preparations; read-out: Binding affinity on hAT2R_Cb23 IC50. The method in brief: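 Membranes from HEK-293 cells expressing human AT2R fused to Cb23 were incubated with 0.05 nM 125I-[Sar1, Ile8]-Angiotensin II in 100 μL buffer (50 mM Tris, 5 mM MgCl2, 1 mM EDTA, 0.1% BSA, pH 7.4) for one hour at 25° C. Ligands were tested as eight-point dose-response curves in duplicate, with C21 and Angiotensin II as references.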
Sequence of human AT2R fused to Cb23 (P50052 whole entry, looked up, the tested form may be a part): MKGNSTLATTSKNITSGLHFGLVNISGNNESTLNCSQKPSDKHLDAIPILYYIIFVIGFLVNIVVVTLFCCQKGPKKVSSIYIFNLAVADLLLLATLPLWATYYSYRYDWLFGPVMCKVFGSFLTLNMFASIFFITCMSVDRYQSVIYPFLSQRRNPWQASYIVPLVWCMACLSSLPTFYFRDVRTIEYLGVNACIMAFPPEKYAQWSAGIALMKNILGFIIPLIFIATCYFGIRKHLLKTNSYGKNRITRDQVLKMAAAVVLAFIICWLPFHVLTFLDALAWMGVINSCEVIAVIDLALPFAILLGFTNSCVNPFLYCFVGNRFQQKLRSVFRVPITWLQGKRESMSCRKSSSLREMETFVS
Background: Displacement assays read how much labelled ligand stays bound in the presence of the test substance.

The target in another assay is human AT1R (Homo sapiens (Human), UniProt P30556). Description: Counterscreen radioligand binding assay, displacement of 125I-[Sar1, Ile8]-Angiotensin II, hAT1R WT. Particulars: 125I-[Sar1, Ile8]-Ang II, semi-quantitative score; for inhibition at 1 µM: compound at 1 μM, read-out: % Displaced radioligand at 1 μM; for inhibition at 10 µM: compound at 10 μM, read-out: % Displaced radioligand at 10 μM. The method in brief:
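Membranes from HEK-293 cells expressing human AT1R were incubated for one hour at 25° C, pH 7.4, with 0.05 nM radiolabelled [Sar1, Ile8]-Ang II and test ligand. Bound radioactivity was collected on PEI-soaked filters, with 10 μM unlabelled [Sar1]-Ang II defining non-specific binding. Results are percent displacement at 1 μM and […], or IC50 from eight-point duplicate curves.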
(In general: Counterscreens check selectivity or assay interference.)

Each structure is given as a SMILES string.

Sequence of human AT1R (P30556 whole entry): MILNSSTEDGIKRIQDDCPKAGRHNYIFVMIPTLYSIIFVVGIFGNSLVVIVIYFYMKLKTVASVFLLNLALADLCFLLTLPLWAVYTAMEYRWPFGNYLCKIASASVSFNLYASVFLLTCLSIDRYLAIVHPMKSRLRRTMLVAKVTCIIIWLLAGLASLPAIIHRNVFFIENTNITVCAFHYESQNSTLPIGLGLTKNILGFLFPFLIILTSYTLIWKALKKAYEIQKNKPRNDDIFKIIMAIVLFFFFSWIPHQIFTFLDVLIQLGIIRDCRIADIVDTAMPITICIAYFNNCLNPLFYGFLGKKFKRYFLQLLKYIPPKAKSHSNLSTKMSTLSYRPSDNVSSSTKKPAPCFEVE

With `CC(C)Cc1cc(F)c(-c2nn[nH]n2)c(N2CCN(Cc3cccnn3)C(C(C)C)C2)c1` (stereo not drawn) [Compound A-179, 3-[[4-[3-fluoro-5-isobutyl-2-(2H-tetrazol-5-yl)phenyl]-2-isopropyl-piperazin-1-yl]methyl]pyridazine], on human AT2R fused to Cb23, the IC50 (commonly the midpoint of a concentration-inhibition curve) was 953 nM. Moreover, on human AT1R, the inhibition at 1 µM is less than 30% and the inhibition at 10 µM was less than 30%.
On to `CC(C)Cc1cc(F)c(-c2nn[nH]n2)c(N2CCN(Cc3cccnn3)CC2C)c1` (stereo not drawn) [Compound A-180, 3-[[4-[3-fluoro-5-isobutyl-2-(2H-tetrazol-5-yl)phenyl]-3-methyl-piperazin-1-yl]methyl]pyridazine], for which the half-inhibitory concentration (IC50) on human AT2R fused to Cb23 turned out to be 3.95 nM. On human AT1R, the inhibition at 1 µM was less than 30% and the inhibition at 10 µM is less than 30%.
As for `CC(C)Cc1cc(F)c(-c2nn[nH]n2)c(N2CCN(Cc3cccnn3)C(C)(C)C2)c1` [Compound A-182, 3-[[4-[3-fluoro-5-isobutyl-2-(2H-tetrazol-5-yl)phenyl]-2,2-dimethyl-piperazin-1-yl]methyl]pyridazine], the IC50 at human AT2R fused to Cb23 was determined as 18.6 nM. On human AT1R, the inhibition at 1 µM was less than 30% and the inhibition at 10 µM is less than 30%.
For `CC(C)Cc1cc(F)c(-c2nn[nH]n2)c(N2C[C@@H](C)N(Cc3cccnn3)[C@H](C)C2)c1` [Compound A-185, 3-[[(2R,6R)-4-[3-fluoro-5-isobutyl-2-(2H-tetrazol-5-yl)-phenyl]-2,6-dimeth-yl-piperazin-1-yl]-methyl]pyridazine], the IC50 at human AT2R fused to Cb23 came to 69.6 nM. At human AT1R, the inhibition at 1 µM was less than 30% and the inhibition at 10 µM was less than 30%.
Consider `CC(C)Cc1cc(F)c(-c2nn[nH]n2)c(N2C[C@@H](C)N(Cc3cccnn3)[C@@H](C)C2)c1` [Compound A-186, 3-[[(2S,6R)-4-[3-fluoro-5-isobutyl-2-(2H-tetrazol-5-yl)-phenyl]-2,6-dimeth-yl-piperazin-1-yl]-methyl]pyridazine], for which the half-maximal inhibitory concentration (IC50) at human AT2R fused to Cb23 was 18.3 nM. Besides, at human AT1R, the inhibition at 1 µM is less than 30% and the inhibition at 10 µM was less than 30%.
With `CC(C)Cc1cc(F)c(-c2nn[nH]n2)c(N2C[C@H](C)N(Cc3cccnn3)[C@@H](C)C2)c1` [Compound A-187, 3-[[(2S,6S)-4-[3-fluoro-5-isobutyl-2-(2H-tetrazol-5-yl)-phenyl]-2,6-dimeth-yl-piperazin-1-yl]-methyl]pyridazine], the concentration for half-maximal inhibition (IC50) on human AT2R fused to Cb23 came out at 7.26 nM. Besides, at human AT1R, the inhibition at 1 µM is less than 30% and the inhibition at 10 µM was less than 30%.
Consider `CC(C)Cc1cc(F)c(-c2nn[nH]n2)c(N2CCN(Cc3cccnn3)C(C)C2C)c1` (stereo not drawn) [Compound A-188, 3-[[4-[3-fluoro-5-isobutyl-2-(2H-tetrazol-5-yl)phen-yl]-2,3-dimethyl-piperazin-1-yl]-methyl]pyridazine], for which the IC50 on human AT2R fused to Cb23 was 13.9 nM. In addition, at human AT1R, the inhibition at 1 µM was less than 30% and the inhibition at 10 µM is less than 30%.
`CC(C)Cc1cc(F)c(-c2nn[nH]n2)c(N2CC3CC2CN3Cc2cccnn2)c1` (stereo not drawn) [Compound A-189, 2-[3-fluoro-5-isobutyl-2-(2H-tetrazol-5-yl)phen-yl]-5-(pyridazin-3-ylmethyl)-2,5-di-azabicyclo[2.2.1]-heptane]: the IC50 at human AT2R fused to Cb23 was determined as 2650 nM. On human AT1R, the inhibition at 1 µM was less than 30% and the inhibition at 10 µM was less than 30%.
Take `CC(C)Cc1cc(F)c(-c2nn[nH]n2)c(N2CC3CCC(C2)N3Cc2cccnn2)c1` [Compound A-190, 3-[3-fluoro-5-isobutyl-2-(2H-tetrazol-5-yl)phen-yl]-8-(pyridazin-3-ylmethyl)-3,8-diaza-bicyclo[3.2.1]octane]: the IC50 at human AT2R fused to Cb23 was determined as 1350 nM. Besides, at human AT1R, the inhibition at 1 µM is less than 30% and the inhibition at 10 µM was less than 30%.
Take `CC(C)Cc1cc(F)c(-c2nn[nH]n2)c(N2CCN(Cc3cc(Cl)ccn3)CC2)c1` [Compound A-191, 1-[(4-chloro-2-pyridyl)methyl]-4-[3-fluoro-5-isobutyl-2-(2H-tetrazol-5-yl)phenyl]piperazine]: the concentration for half-maximal inhibition (IC50) on human AT2R fused to Cb23 was 53.1 nM. In addition, on human AT1R, the inhibition at 1 µM is less than 30% and the inhibition at 10 µM is less than 30%.
`CC(C)Cc1cc(F)c(-c2nn[nH]n2)c(N2CCN(Cc3ccc(Cl)cn3)CC2)c1` [Compound A-192, 1-[(5-chloro-2-pyridyl)methyl]-4-[3-fluoro-5-isobutyl-2-(2H-tetrazol-5-yl)phenyl]piperazine]: the half-inhibitory concentration (IC50) at human AT2R fused to Cb23 amounted to 519 nM. Further, on human AT1R, the inhibition at 1 µM is less than 30% and the inhibition at 10 µM is less than 30%.
For the compound `CC(C)Cc1cc(F)c(-c2nn[nH]n2)c(N2CCN(Cc3ncccc3Cl)CC2)c1` [Compound A-193, 1-[(3-chloro-2-pyridyl)methyl]-4-[3-fluoro-5-isobutyl-2-(2H-tetrazol-5-yl)phenyl]piperazine], the IC50 at human AT2R fused to Cb23 turned out to be 389 nM. Moreover, on human AT1R, the inhibition at 1 µM is less than 30% and the inhibition at 10 µM is less than 30%.
For the compound `COc1ccc(CN2CCN(c3cc(CC(C)C)cc(F)c3-c3nn[nH]n3)CC2)nc1` [Compound A-194, 1-[3-fluoro-5-isobutyl-2-(2H-tetrazol-5-yl)phenyl]-4-[(5-methoxy-2-pyridyl)methyl]piperazine], at human AT2R fused to Cb23, the 50% inhibitory concentration (IC50) amounted to 737 nM. Moreover, at human AT1R, the inhibition at 1 µM was less than 30% and the inhibition at 10 µM is less than 30%.
As for `CC(C)Cc1cc(F)c(-c2nn[nH]n2)c(N2CCN(Cc3ccc(F)cn3)CC2)c1` [Compound A-195, 1-[3-fluoro-5-isobutyl-2-(2H-tetrazol-5-yl)phen-yl]-4-[(5-fluoro-2-pyridyl)methyl]-piperazine], the IC50 at human AT2R fused to Cb23 was 537 nM. Besides, at human AT1R, the inhibition at 1 µM was less than 30% and the inhibition at 10 µM was less than 30%.
With `CC(C)Cc1cc(F)c(-c2nn[nH]n2)c(N2CCN(Cc3ncccc3F)CC2)c1` [Compound A-196, 1-[3-fluoro-5-isobutyl-2-(2H-tetrazol-5-yl)phen-yl]-4-[(3-fluoro-2-pyridyl)methyl]-piperazine], the IC50 on human AT2R fused to Cb23 turned out to be 631 nM. Further, at human AT1R, the inhibition at 1 µM was less than 30% and the inhibition at 10 µM was less than 30%.
Take `Cc1cnc(CN2CCN(c3cc(CC(C)C)cc(F)c3-c3nn[nH]n3)CC2)c(C)c1` [Compound A-197, 1-[(3,5-dimethyl-2-pyridyl)methyl]-4-[3-fluoro-5-isobutyl-2-(2H-tetrazol-5-yl)phenyl]piperazine]: the IC50 at human AT2R fused to Cb23 was 203 nM. Also, on human AT1R, the inhibition at 1 µM was less than 30% and the inhibition at 10 µM is less than 30%.
On to `COc1cccnc1CN1CCN(c2cc(CC(C)C)cc(F)c2-c2nn[nH]n2)CC1` [Compound A-198, 1-[3-fluoro-5-isobutyl-2-(2H-tetrazol-5-yl)phen-yl]-4-[(3-methoxy-2-pyridyl)meth-yl]piperazine], for which the IC50 on human AT2R fused to Cb23 was 1820 nM. For the same compound, on human AT1R, the inhibition at 1 µM is less than 30% and the inhibition at 10 µM was less than 30%.
For `COc1ccnc(CN2CCN(c3cc(CC(C)C)cc(F)c3-c3nn[nH]n3)CC2)c1` [Compound A-199, 1-[3-fluoro-5-isobutyl-2-(2H-tetrazol-5-yl)phen-yl]-4-[(4-methoxy-2-pyridyl)methyl]-piperazine], the 50% inhibitory concentration (IC50) at human AT2R fused to Cb23 amounted to 176 nM. In addition, at human AT1R, the inhibition at 1 µM is less than 30% and the inhibition at 10 µM is less than 30%.
On to `COc1c(C)cnc(CN2CCN(c3cc(CC(C)C)cc(F)c3-c3nn[nH]n3)CC2)c1C` [Compound A-200, 1-[3-fluoro-5-isobutyl-2-(2H-tetrazol-5-yl)phen-yl]-4-[(4-methoxy-3,5-dimethyl-2-pyridyl)methyl]-piperazine], for which the half-maximal inhibitory concentration (IC50) on human AT2R fused to Cb23 came to 1060 nM. At human AT1R, the inhibition at 1 µM was less than 30% and the inhibition at 10 µM was less than 30%.
In the case of `Cc1ccc(CN2CCN(c3cc(CC(C)C)cc(F)c3-c3nn[nH]n3)CC2)nc1` [Compound A-201, 1-[3-fluoro-5-isobutyl-2-(2H-tetrazol-5-yl)phenyl]-4-[(5-methyl-2-pyridyl)methyl]piperazine], the half-maximal inhibitory concentration (IC50) at human AT2R fused to Cb23 was 650 nM. On human AT1R, the inhibition at 1 µM is less than 30% and the inhibition at 10 µM is less than 30%.
As to `CC(C)Cc1cc(F)c(-c2nn[nH]n2)c(N2CCN(Cc3cc(C(F)(F)F)ccn3)CC2)c1` [Compound A-202, 1-[3-fluoro-5-isobutyl-2-(2H-tetrazol-5-yl)phenyl]-4-[[4-(trifluoromethyl)-2-pyridyl]methyl]piperazine], the IC50 at human AT2R fused to Cb23 was 824 nM. Besides, at human AT1R, the inhibition at 1 µM was less than 30% and the inhibition at 10 µM was less than 30%.
As for `Cc1cccnc1CN1CCN(c2cc(CC(C)C)cc(F)c2-c2nn[nH]n2)CC1` [Compound A-203, 1-[3-fluoro-5-isobutyl-2-(2H-tetrazol-5-yl)phen-yl]-4-[(3-methyl-2-pyridyl)methyl]-piperazine], the IC50 on human AT2R fused to Cb23 amounted to 155 nM. Also, at human AT1R, the inhibition at 1 µM was less than 30% and the inhibition at 10 µM is less than 30%.
As for `Cc1ccnc(CN2CCN(c3cc(CC(C)C)cc(F)c3-c3nn[nH]n3)CC2)c1` [Compound A-204, 1-[3-fluoro-5-isobutyl-2-(2H-tetrazol-5-yl)phen-yl]-4-[(4-methyl-2-pyridyl)methyl]-piperazine], the IC50 at human AT2R fused to Cb23 came out at 212 nM. Also, at human AT1R, the inhibition at 1 µM was less than 30% and the inhibition at 10 µM was less than 30%.
For the compound `CC(C)Cc1cc(F)c(-c2nn[nH]n2)c(N2CCN(Cc3ncc(Cl)cc3F)CC2)c1` [Compound A-205, 1-[(5-chloro-3-fluoro-2-pyridyl)methyl]-4-[3-fluoro-5-isobutyl-2-(2H-tetrazol-5-yl)phenyl]piperazine], at human AT2R fused to Cb23, the IC50 amounted to 379 nM. Further, at human AT1R, the inhibition at 1 µM was less than 30% and the inhibition at 10 µM is less than 30%.
